Data reported in patent US20230256190A1, “Methods Of Administering High Concentrations Of Nitric Oxide” (Mallinckrodt Hospital Products IP Unlimited Company, priority 2012, published 2023).

Key:
healthy subjects [1] = test: Multiple-dose, single-blind, placebo-controlled tolerance study of pulsed nitric oxide: adverse events; assay type: in vivo, human; conditions: for Total % with any AE: 72 h pulsed inhalation
Method: (§1) A multiple-dose, single-blind, placebo-controlled, tolerance study of pulsed volumes of nitric oxide was completed using healthy subjects. An objective of the study was to determine safe dosing limits of inhaled nitric oxide delivered via a pulse system at cylinder concentrations of 100, 400, and 800 ppm and gas volumes ranging from 4 to 60 mL/breath at dose rates ranging from 17 to 166 μg of NO/sec. Yet another objective of the study was to determine the safety profile, including adverse events (AEs), vital signs and laboratory parameters.
(§2) Six subjects were assigned to each cohort (5 NO, 1 placebo) in a randomized, single-blind fashion. All subjects received 72 hours of continuous inhalation. A total of 22 cohorts were evaluated, with NO doses ranging from 125 to 1500 nmol/breath at delivery concentrations of 100, 400, or 800 ppm and varying volumes (4 to 60 mL per breath) in a matrix design, as shown in Table 1. Vital signs and safety laboratory were evaluated. Blood samples for determination of methemoglobin (MetHb) in venous blood, were collected for 72 hours at selected time points.
(§3) Primary safety evaluations included: (1) qualitative assessment of local nasal tolerability via a scoring system (0 to 3); and (2) formation of MetHb (compared with a standard of 7%) following varying concentrations and volumes of pulsed doses of NO. Safety evaluations included assessments of adverse events (AEs), medical history, physical examinations, vital signs, electrocardiograms (ECGs) and laboratory assessments at baseline and during the study period.
(§4) All evaluations were performed on the ‘Safety’ population, defined as all subjects who were enrolled and treated with any amount of study drug. Descriptive statistics included mean, standard deviation (SD), range, median, CV %, geometric mean and geometric CV %.
(§5) For analysis purposes, cohorts that received the same dose of NO but different cylinder concentrations and volumes were pooled, thereby creating 15 dose levels (n=14 active NO and 1 placebo, from all dose groups combined). These 15 dose levels were grouped into 4 dose analysis groups: placebo, low-dose NO (1-500 nmol/breath), mid-dose NO (501-1000 nmol/breath), and high-dose NO (1001-1500 nmol/breath).

healthy subjects [2] = test: Local nasal tolerability scoring (0 to 3) during 72 hours of pulsed nitric oxide inhalation; assay type: in vivo, human; conditions: for Local tolerability Mean Score / Percent of Subjects Experiencing Nasal Irritation: 72 hours
Method: as §1
as §2, with “All subjects received 72 hours of continuous inhalation.” left out, “Blood samples for determination of methemoglobin (MetHb) in venous blood, were collected for 72 hours at selected time points.” left out
as §3, §4, §5
For analysis purposes, cohorts that received the same dose rate of administration of NO but different cylinder concentrations, doses and volumes were pooled, thereby creating 6 dose rate of administration levels (n=5 active NO and 1 placebo, from all rate of administration groups combined). The dose rate of administration of NO was calculated as the product of the flow rate of NO and the cylinder NO concentration.

[3] = NO 501-1000 nmol/breath (N = 45)
[4] = NO 1001-1500 nmol/breath (N = 15)

Structure (SMILES): [N]=O [NO, Nitric oxide]
- Back pain (% of subjects) (healthy subjects [1]; NO 1-500 nmol/breath (N = 50)): 6.0%
- Headache (% of subjects) (healthy subjects [1]; NO 1-500 nmol/breath (N = 50)): 8.0%
- Nausea (% of subjects) (healthy subjects [1]; NO 1-500 nmol/breath (N = 50)): 2.0%
- Total % with any AE (healthy subjects [1]; NO 1-500 nmol/breath (N = 50)): 28.0%
- Back pain (% of subjects) (healthy subjects [1]; [3]): 4.4%
- Headache (% of subjects) (healthy subjects [1]; [3]): 4.4%
- Nausea (% of subjects) (healthy subjects [1]; [3]): 4.4%
- Total % with any AE (healthy subjects [1]; [3]): 33.3%
- Back pain (% of subjects) (healthy subjects [1]; [4]): 0.0%
- Headache (% of subjects) (healthy subjects [1]; [4]): 20.0%
- Nausea (% of subjects) (healthy subjects [1]; [4]): 6.7%
- Total % with any AE (healthy subjects [1]; [4]): 53.3%
- Overall incidence of AEs (healthy subjects [1]; across dose, cylinder concentration and volume cohorts): only dose related
- Subjects withdrawn due to chest discomfort, decreased O2 saturation, and dyspnea (healthy subjects [1]; high-dose NO group (1001-1500 nmol/breath), one subject): 6.7%
- Local tolerability Mean Score (healthy subjects [2]; cylinder concentration 100 ppm): 0.10
- Local tolerability Mean Score (healthy subjects [2]; cylinder concentration 400 ppm): 0.09
- Local tolerability Mean Score (healthy subjects [2]; cylinder concentration 800 ppm): 0.33
- Local tolerability Mean Score (healthy subjects [2]; dose group 125 nmol/breath, score 0 to 3): 0.07
- Local tolerability Mean Score (healthy subjects [2]; dose group 250 nmol/breath, score 0 to 3): 0.00
- Local tolerability Mean Score (healthy subjects [2]; dose group 340 nmol/breath, score 0 to 3): 0.10
- Local tolerability Mean Score (healthy subjects [2]; dose group 420 nmol/breath, score 0 to 3): 0.00
- Local tolerability Mean Score (healthy subjects [2]; dose group 500 nmol/breath, score 0 to 3): 0.10
- Local tolerability Mean Score (healthy subjects [2]; dose group 585 nmol/breath, score 0 to 3): 0.40
- Local tolerability Mean Score (healthy subjects [2]; dose group 670 nmol/breath, score 0 to 3): 0.00
- Local tolerability Mean Score (healthy subjects [2]; dose group 750 nmol/breath, score 0 to 3): 0.00
- Local tolerability Mean Score (healthy subjects [2]; dose group 840 nmol/breath, score 0 to 3): 0.60
- Local tolerability Mean Score (healthy subjects [2]; dose group 920 nmol/breath, score 0 to 3): 0.00
- Local tolerability Mean Score (healthy subjects [2]; dose group 1000 nmol/breath, score 0 to 3): 0.33
- Local tolerability Mean Score (healthy subjects [2]; dose group 1160 nmol/breath, score 0 to 3): 0.40
- Local tolerability Mean Score (healthy subjects [2]; dose group 1340 nmol/breath, score 0 to 3): 0.20
- Local tolerability Mean Score (healthy subjects [2]; dose group 1500 nmol/breath, score 0 to 3): 0.75
- Percent of Subjects Experiencing Nasal Irritation (healthy subjects [2]; dosing rate 17 μg NO/sec): 0%
- Percent of Subjects Experiencing Nasal Irritation (healthy subjects [2]; dosing rate 21 μg NO/sec): 10.0%
- Percent of Subjects Experiencing Nasal Irritation (healthy subjects [2]; dosing rate 33 μg NO/sec): 10%
- Percent of Subjects Experiencing Nasal Irritation (healthy subjects [2]; dosing rate 83 μg NO/sec): 10%
- Percent of Subjects Experiencing Nasal Irritation (healthy subjects [2]; dosing rate 167 μg NO/sec): 36.4%
- Local tolerability Mean Score (healthy subjects [2]; pulse volume 4 mL/pulse): 0.00
- Local tolerability Mean Score (healthy subjects [2]; pulse volume 8 mL/pulse): 0.00
- Local tolerability Mean Score (healthy subjects [2]; pulse volume 10 mL/pulse): 0.20
- Local tolerability Mean Score (healthy subjects [2]; pulse volume 15 mL/pulse): 0.10
- Local tolerability Mean Score (healthy subjects [2]; pulse volume 20 mL/pulse): 0.00
- Local tolerability Mean Score (healthy subjects [2]; pulse volume 25 mL/pulse): 0.60
- Local tolerability Mean Score (healthy subjects [2]; pulse volume 30 mL/pulse): 0.07
- Local tolerability Mean Score (healthy subjects [2]; pulse volume 35 mL/pulse): 0.40
- Local tolerability Mean Score (healthy subjects [2]; pulse volume 40 mL/pulse): 0.10
- Local tolerability Mean Score (healthy subjects [2]; pulse volume 45 mL/pulse): 0.33
- Local tolerability Mean Score (healthy subjects [2]; pulse volume 50 mL/pulse): 0.00
- Local tolerability Mean Score (healthy subjects [2]; pulse volume 55 mL/pulse): 0.00
- Local tolerability Mean Score (healthy subjects [2]; pulse volume 60 mL/pulse): 0.30
- Nasal irritation (healthy subjects [2]; doses less than 420 nmol/breath (about 0.4 mg/kg/hr), 48 hours of continuous administration): no evidence of nasal irritation
- Nasal tolerability compared with placebo (healthy subjects [2]; doses less than 420 nmol/breath, at 72 hours): no different than for placebo
- Subjects with nasal redness (healthy subjects [2]; doses less than 420 nmol/breath, at 72 hours, placebo 3/18): 2/18
- Incidence of nasal irritation (healthy subjects [2]; dosing rate of 166 μg g/sec, including a case of nasal ulceration): higher incidence of nasal irritation
- Nasal tolerability compared with placebo (healthy subjects [2]; dosing rates up to 166 μg/sec, 72 hours pulsed dosing): not different from placebo
